Converted amounts (≈) assume the structure as drawn.
Columns and labels:
C. neoformans (H99) = test: MIC, broth microdilution (CLSI M27-A3), reference isolate; settings: Cryptococcus neoformans
C. dublinensis (MYA-646) = test: as above; settings: Candida dubliniensis
C. albicans CAN14 = test: Murine model of systemic candidiasis; type: in vivo, C57BL/6 mice; settings: 10 mg/kg intraperitoneally every 12 h for 5 days
Method: Female mice were used in the oral and systemic candidiasis model.
The murine model of systemic candidiasis was established according to the protocol previously described by [16], with modifications. […] Treatments to mice, performed intraperitoneally, were started 3 h after infection and persisted every 12 h for 5 days. […] All mice were sacrificed by cervical dislocation after 5 days and the kidneys were removed, observed macroscopically for lesions and colonies, weighed, measured and homogenized in PBS. The homogenates were serially diluted and plated on Sabouraud medium plates. Plates were incubated at 30 °C for 48 h and the fungal load was expressed as the ratio of CFU/g of kidney.
A p value ≤ 0.05 was considered significant. Statistical analysis of results of murine tests used Newman–Keuls Multiple and the Student’s t-test using GraphPad Prism, a p-value ≤ 0.05 was considered significant.

C. glabrata (ATCC90030) = test: MIC, broth microdilution (CLSI M27-A3), reference isolate; settings: Nakaseomyces glabratus
[1] = system: Candida albicans clinical isolates; test: MIC, broth microdilution, clinical isolates
[2] = system: Cryptococcus neoformans clinical isolates; test: MIC, broth microdilution, clinical isolates
C. krusei (ATCC6258) = test: MIC, broth microdilution (CLSI M27-A3), reference isolate; settings: Pichia kudriavzevii
[3] = system: Candida glabrata clinical isolates; test: MIC, broth microdilution, clinical isolates
C. albicans (CAN14) = test: MIC, broth microdilution (CLSI M27-A3), reference isolate; settings: Candida albicans
[4] = system: C. parapsilosis (ATCC22019); test: as above; settings: Lodderomyces parapsilosis
[5] = system: Candida parapsilosis isolates; test: MIC, broth microdilution, clinical isolates
[6] = system: C. tropicalis (ATCC13803); test: MIC, broth microdilution (CLSI M27-A3), reference isolate; settings: Candida tropicalis
C. albicans (DAY-185) = test: as above; settings: Candida albicans, 48 h

Question: How did the MIC (C. neoformans (H99)) turn out when `OC(Cn1cncn1)(Cn1cncn1)c1ccc(F)cc1F` [Fluconazole] was run?
Answer: Its MIC is 2 µg/mL (≈ 6.53 µM).

Question: And the MIC (C. dublinensis (MYA-646))?
Answer: The MIC was 1 µg/mL (≈ 3.27 µM).

Question: And the “fungal load in the kidneys (CFU/g) versus untreated control” value (C. albicans CAN14)?
Answer: The value was “significant reduction”.

Question: And the MIC (C. glabrata (ATCC90030))?
Answer: Its MIC is 4 µg/mL (≈ 13.1 µM).

Question: And the MIC50 ([1]; Candida albicans)?
Answer: Its MIC50 is 1 µg/mL (≈ 3.27 µM).

Question: What about the MIC90 ([1]; Candida albicans) of the same compound?
Answer: Its MIC90 is 2 µg/mL (≈ 6.53 µM).

Question: What about the MIC ([1]; Candida albicans, C. albicans clinical isolate 1) of the same compound?
Answer: The MIC was 1 µg/mL (≈ 3.27 µM).

Question: And the MIC ([1]; Candida albicans, C. albicans clinical isolate 02A)?
Answer: The MIC was 4 µg/mL (≈ 13.1 µM).

Question: And the MIC ([1]; Candida albicans, C. albicans clinical isolate 02B)?
Answer: Its MIC is 2 µg/mL (≈ 6.53 µM).

Question: And the MIC ([1]; Candida albicans, C. albicans clinical isolate 6)?
Answer: The MIC was 1 µg/mL (≈ 3.27 µM).

Question: What about the MIC ([1]; Candida albicans, C. albicans clinical isolate 7) of the same compound?
Answer: Its MIC is 1 µg/mL (≈ 3.27 µM).

Question: And the MIC ([1]; Candida albicans, C. albicans clinical isolate 9)?
Answer: The MIC was 0.5 µg/mL (≈ 1.63 µM).

Question: And the MIC ([1]; Candida albicans, C. albicans clinical isolate 10)?
Answer: The MIC was 0.5 µg/mL (≈ 1.63 µM).

Question: What about the MIC ([1]; Candida albicans, C. albicans clinical isolate 11) of the same compound?
Answer: Its MIC is 1 µg/mL (≈ 3.27 µM).

Question: And the MIC ([1]; Candida albicans, C. albicans clinical isolate 13)?
Answer: The MIC was 1 µg/mL (≈ 3.27 µM).

Question: And the “MIC90” value ([1]; nine C. albicans clinical isolates)?
Answer: The value was 2.0 µg/mL (≈ 6.53 µM).

Question: What about the MIC50 [2] of the same compound?
Answer: Its MIC50 is 8 µg/mL (≈ 26.1 µM).

Question: What about the MIC90 [2] of the same compound?
Answer: The MIC90 was 16 µg/mL (≈ 52.2 µM).

Question: And the MIC ([2]; C. neoformans clinical isolate 27JF)?
Answer: The MIC was 8 µg/mL (≈ 26.1 µM).

Question: What about the MIC ([2]; C. neoformans clinical isolate 28JF) of the same compound?
Answer: Its MIC is 8 µg/mL (≈ 26.1 µM).

Question: And the MIC ([2]; C. neoformans clinical isolate 93)?
Answer: Its MIC is 4 µg/mL (≈ 13.1 µM).

Question: What about the MIC ([2]; C. neoformans clinical isolate 94) of the same compound?
Answer: Its MIC is 8 µg/mL (≈ 26.1 µM).

Question: What about the MIC ([2]; C. neoformans clinical isolate 646B) of the same compound?
Answer: The MIC was 1 µg/mL (≈ 3.27 µM).

Question: What about the MIC ([2]; C. neoformans clinical isolate 975) of the same compound?
Answer: Its MIC is 2 µg/mL (≈ 6.53 µM).

Question: What about the MIC ([2]; C. neoformans clinical isolate 9220) of the same compound?
Answer: Its MIC is 2 µg/mL (≈ 6.53 µM).

Question: What about the MIC ([2]; C. neoformans clinical isolate 9273) of the same compound?
Answer: The MIC was 2 µg/mL (≈ 6.53 µM).

Question: And the MIC ([2]; C. neoformans clinical isolate 10131)?
Answer: The MIC was 8 µg/mL (≈ 26.1 µM).

Question: What about the MIC ([2]; C. neoformans clinical isolate 10211) of the same compound?
Answer: Its MIC is 4 µg/mL (≈ 13.1 µM).

Question: What about the MIC ([2]; C. neoformans clinical isolate 10264) of the same compound?
Answer: Its MIC is 4 µg/mL (≈ 13.1 µM).

Question: And the MIC ([2]; C. neoformans clinical isolate 10335)?
Answer: Its MIC is 8 µg/mL (≈ 26.1 µM).

Question: What about the MIC ([2]; C. neoformans clinical isolate 10379) of the same compound?
Answer: Its MIC is 8 µg/mL (≈ 26.1 µM).

Question: And the MIC ([2]; C. neoformans clinical isolate 41292)?
Answer: Its MIC is 8 µg/mL (≈ 26.1 µM).

Question: What about the MIC ([2]; C. neoformans clinical isolate 41295) of the same compound?
Answer: Its MIC is 32 µg/mL (≈ 104 µM).

Question: And the MIC ([2]; C. neoformans clinical isolate 41296)?
Answer: The MIC was 16 µg/mL (≈ 52.2 µM).

Question: And the MIC ([2]; C. neoformans clinical isolate 41297)?
Answer: Its MIC is 8 µg/mL (≈ 26.1 µM).

Question: What about the MIC ([2]; C. neoformans clinical isolate 41298) of the same compound?
Answer: The MIC was 8 µg/mL (≈ 26.1 µM).

Question: And the MIC ([2]; C. neoformans clinical isolate 41299)?
Answer: The MIC was 4 µg/mL (≈ 13.1 µM).

Question: What about the MIC ([2]; C. neoformans clinical isolate 90896) of the same compound?
Answer: The MIC was 32 µg/mL (≈ 104 µM).

Question: And the MIC ([2]; C. neoformans clinical isolate 92868)?
Answer: The MIC was 8 µg/mL (≈ 26.1 µM).

Question: And the MIC ([2]; C. neoformans clinical isolate BF113)?
Answer: The MIC was 16 µg/mL (≈ 52.2 µM).

Question: And the MIC ([2]; C. neoformans clinical isolate BF114)?
Answer: Its MIC is 64 µg/mL (≈ 209 µM).

Question: And the MIC ([2]; C. neoformans clinical isolate C31)?
Answer: Its MIC is 4 µg/mL (≈ 13.1 µM).

Question: What about the MIC ([2]; C. neoformans clinical isolate F10) of the same compound?
Answer: The MIC was 4 µg/mL (≈ 13.1 µM).

Question: And the MIC ([2]; C. neoformans clinical isolate RN01)?
Answer: Its MIC is 4 µg/mL (≈ 13.1 µM).

Question: What about the MIC ([2]; C. neoformans clinical isolate WP) of the same compound?
Answer: Its MIC is 8 µg/mL (≈ 26.1 µM).

Question: And the MIC (C. krusei (ATCC6258))?
Answer: Its MIC is 64 µg/mL (≈ 209 µM).

Question: What about the MIC50 ([3]; Nakaseomyces glabratus) of the same compound?
Answer: Its MIC50 is 2 µg/mL (≈ 6.53 µM).

Question: What about the MIC90 ([3]; Nakaseomyces glabratus) of the same compound?
Answer: The MIC90 was 2 µg/mL (≈ 6.53 µM).

Question: And the MIC ([3]; Nakaseomyces glabratus, C. glabrata clinical isolate 6922)?
Answer: The MIC was 2 µg/mL (≈ 6.53 µM).

Question: What about the MIC ([3]; Nakaseomyces glabratus, C. glabrata clinical isolate 6927) of the same compound?
Answer: The MIC was 2 µg/mL (≈ 6.53 µM).

Question: What about the MIC ([3]; Nakaseomyces glabratus, C. glabrata clinical isolate 6931) of the same compound?
Answer: The MIC was 0.5 µg/mL (≈ 1.63 µM).

Question: And the MIC ([3]; Nakaseomyces glabratus, C. glabrata clinical isolate 6932)?
Answer: Its MIC is 0.5 µg/mL (≈ 1.63 µM).

Question: What about the MIC ([3]; Nakaseomyces glabratus, C. glabrata clinical isolate 6943) of the same compound?
Answer: The MIC was 8 µg/mL (≈ 26.1 µM).

Question: And the MIC ([3]; Nakaseomyces glabratus, C. glabrata clinical isolate 7110)?
Answer: The MIC was 1 µg/mL (≈ 3.27 µM).

Question: What about the MIC ([3]; Nakaseomyces glabratus, C. glabrata clinical isolate 7221) of the same compound?
Answer: The MIC was 0.5 µg/mL (≈ 1.63 µM).

Question: And the MIC ([3]; Nakaseomyces glabratus, C. glabrata clinical isolate 7255)?
Answer: Its MIC is 2 µg/mL (≈ 6.53 µM).

Question: And the MIC ([3]; Nakaseomyces glabratus, C. glabrata clinical isolate 7815)?
Answer: The MIC was 2 µg/mL (≈ 6.53 µM).

Question: And the MIC ([3]; Nakaseomyces glabratus, C. glabrata clinical isolate 7871)?
Answer: The MIC was 2 µg/mL (≈ 6.53 µM).

Question: What about the “susceptibility of isolates according to CLSI M27-S4” value ([3]; all C. glabrata clinical isolates) of the same compound?
Answer: Its value is “sensitive”.

Question: What about the MIC (C. albicans (CAN14)) of the same compound?
Answer: Its MIC is 0.125 µg/mL (≈ 0.408 µM).

Question: And the MIC [4]?
Answer: The MIC was 8 µg/mL (≈ 26.1 µM).

Question: What about the “MIC90” value ([5]; C. parapsilosis isolates) of the same compound?
Answer: Its value is 16 µg/mL (≈ 52.2 µM).

Question: What about the MIC50 ([5]; Lodderomyces parapsilosis) of the same compound?
Answer: Its MIC50 is 0.25 µg/mL (≈ 0.816 µM).

Question: And the MIC90 ([5]; Lodderomyces parapsilosis)?
Answer: Its MIC90 is 16 µg/mL (≈ 52.2 µM).

Question: What about the MIC ([5]; Lodderomyces parapsilosis, C. parapsilosis isolate 6901) of the same compound?
Answer: The MIC was 0.25 µg/mL (≈ 0.816 µM).

Question: What about the MIC ([5]; Lodderomyces parapsilosis, C. parapsilosis isolate 6917) of the same compound?
Answer: Its MIC is 0.25 µg/mL (≈ 0.816 µM).

Question: What about the MIC ([5]; Lodderomyces parapsilosis, C. parapsilosis isolate 6933) of the same compound?
Answer: Its MIC is 0.25 µg/mL (≈ 0.816 µM).

Question: What about the MIC ([5]; Lodderomyces parapsilosis, C. parapsilosis isolate 7449) of the same compound?
Answer: Its MIC is 16 µg/mL (≈ 52.2 µM).

Question: What about the MIC ([5]; Lodderomyces parapsilosis, C. parapsilosis isolate 7585) of the same compound?
Answer: The MIC was 0.25 µg/mL (≈ 0.816 µM).

Question: What about the MIC ([5]; Lodderomyces parapsilosis, C. parapsilosis isolate 7652) of the same compound?
Answer: The MIC was 4 µg/mL (≈ 13.1 µM).

Question: And the MIC ([5]; Lodderomyces parapsilosis, C. parapsilosis isolate 7839)?
Answer: The MIC was 0.5 µg/mL (≈ 1.63 µM).

Question: And the MIC ([5]; Lodderomyces parapsilosis, C. parapsilosis isolate 7970A)?
Answer: The MIC was 1 µg/mL (≈ 3.27 µM).

Question: What about the MIC ([5]; Lodderomyces parapsilosis, C. parapsilosis isolate 8044) of the same compound?
Answer: Its MIC is 0.25 µg/mL (≈ 0.816 µM).

Question: What about the MIC ([5]; Lodderomyces parapsilosis, C. parapsilosis isolate 8662) of the same compound?
Answer: Its MIC is 16 µg/mL (≈ 52.2 µM).

Question: What about the MIC [6] of the same compound?
Answer: Its MIC is over 64 µg/mL.

Question: What about the MIC (C. albicans (DAY-185)) of the same compound?
Answer: Its MIC is 0.5 µg/mL (≈ 1.63 µM).

— paper PMC6308944, “Anti-Candida albicans Activity of Thiazolylhydrazone Derivatives in Invertebrate and Murine Models” (Journal of Fungi, 2018)
